Experimental data taken from US20250270180A1, “MEK INHIBITORS AND THERAPEUTIC USES THEREOF” (Immuneering Corporation, priority 2020, published 2025).

Legend:
[1] = Absorption & efflux: Caco-2 permeability; conditions: human
[2] = Plasma stability, CD-1 mouse; type: in vitro ADME; conditions: 2 μM
[3] = system: A549 CRAF BP (MEK phosphorylation); assay: A549-CRAF BP 100 nM, 2 h (pMEK); type: cell-based; conditions: Homo sapiens, A549, 2 h, phospho:total ratio normalized to DMSO control
Description: A549 or […] cells were treated in duplicate for two hours with compounds at varying concentrations. After two hours, the cells were lysed, snap frozen, and stored at −80° C. After storage, the lysate was quantified with the Bradford assay. Before the lysates were prepared to run on the Jess, the lysates were diluted to 1 mg/mL for pERK analysis and 1.5 mg/mL pMEK analysis using quantitative Western blotting. ERK and MEK phosphorylation levels were estimated by taking the ratio of phospho-protein to total protein and normalizing to the DMSO control. The results of this study are described in Tables 14-16.

[4] = Plasma stability, human; type: in vitro ADME; conditions: 2 μM
[5] = molecular target: T1, CYP450 2B6 (Homo sapiens, UniProt P20813); assay: CYP450 panel, 2B6; conditions: 10 μM; substrate bupropion
T1 sequence (P20813 1-491): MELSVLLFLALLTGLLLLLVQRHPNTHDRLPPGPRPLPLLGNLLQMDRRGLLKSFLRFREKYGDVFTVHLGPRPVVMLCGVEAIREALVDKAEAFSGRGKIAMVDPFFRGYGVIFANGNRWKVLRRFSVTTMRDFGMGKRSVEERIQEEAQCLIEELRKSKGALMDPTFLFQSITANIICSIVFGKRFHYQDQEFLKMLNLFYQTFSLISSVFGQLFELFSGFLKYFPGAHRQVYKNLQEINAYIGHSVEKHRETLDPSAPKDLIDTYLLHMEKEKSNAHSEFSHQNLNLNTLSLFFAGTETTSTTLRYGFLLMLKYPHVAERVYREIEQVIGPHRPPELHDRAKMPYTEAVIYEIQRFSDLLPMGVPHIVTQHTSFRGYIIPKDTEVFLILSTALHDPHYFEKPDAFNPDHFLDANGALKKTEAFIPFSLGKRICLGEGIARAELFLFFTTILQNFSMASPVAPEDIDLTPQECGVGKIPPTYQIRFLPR

[6] = Microsome stability, CD-1 mouse; conditions: microsomes, 2 μM
[7] = molecular target: T2, CYP450 1A2 (Homo sapiens, UniProt P05177); assay: CYP450 panel, 1A2; type: in vitro ADME; conditions: 10 μM; substrate phenacetin
T2 sequence (P05177 1-516): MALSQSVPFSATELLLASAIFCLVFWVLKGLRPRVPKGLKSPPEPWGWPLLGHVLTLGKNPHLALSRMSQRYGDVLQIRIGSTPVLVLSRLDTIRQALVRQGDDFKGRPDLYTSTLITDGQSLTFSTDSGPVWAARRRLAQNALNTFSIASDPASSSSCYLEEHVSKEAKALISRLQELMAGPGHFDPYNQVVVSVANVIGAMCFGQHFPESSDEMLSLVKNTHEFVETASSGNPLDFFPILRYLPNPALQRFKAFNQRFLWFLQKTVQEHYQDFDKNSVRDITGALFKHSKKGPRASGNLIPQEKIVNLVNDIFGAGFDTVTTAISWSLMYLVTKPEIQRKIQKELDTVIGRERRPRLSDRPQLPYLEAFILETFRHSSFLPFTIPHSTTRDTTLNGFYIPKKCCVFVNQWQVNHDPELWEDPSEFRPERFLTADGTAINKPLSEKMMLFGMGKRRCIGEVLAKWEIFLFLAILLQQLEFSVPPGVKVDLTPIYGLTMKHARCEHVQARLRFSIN

[8] = molecular target: CYP450 2C19 (Homo sapiens, UniProt P33261); assay: CYP450 panel, 2C19; conditions: 10 μM; substrate mephenytoin
[9] = molecular target: hERG Channel (Homo sapiens, UniProt Q12809); assay: cell-based
[10] = system: A549 pERK; assay: A549-pERK, 2 h (quantitative Western, Jess); type: cell-based; conditions: Homo sapiens, A549, 2 h, 10 nM, phospho:total ratio normalized to DMSO control
In short: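 Cells treated in duplicate for 2 h with compound, lysed and protein-normalised (1 mg/mL pERK, 1.5 mg/mL pMEK). Quantitative capillary Western; phospho/total protein ratio normalised to DMSO.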

[11] = molecular target: CYP450 3A4 (Homo sapiens, UniProt P08684); assay: CYP450 panel, 3A4; conditions: 10 μM; for 3A4*: substrate midazolam; for 3A4^: substrate testosterone
[12] = Microsome stability, beagle dog; type: in vitro ADME; conditions: microsomes, 2 μM
[13] = Microsome stability, human; type: in vitro ADME; conditions: microsomes, 2 μM
[14] = molecular target: CYP450 2C9 (Homo sapiens, UniProt P11712); assay: CYP450 panel, 2C9; conditions: 10 μM; substrate Diclofenac
[15] = molecular target: T3, CYP450 2C8 (Homo sapiens, UniProt P10632); assay: CYP450 panel, 2C8; conditions: 10 μM; substrate amodiaquine
T3 sequence (P10632 1-490): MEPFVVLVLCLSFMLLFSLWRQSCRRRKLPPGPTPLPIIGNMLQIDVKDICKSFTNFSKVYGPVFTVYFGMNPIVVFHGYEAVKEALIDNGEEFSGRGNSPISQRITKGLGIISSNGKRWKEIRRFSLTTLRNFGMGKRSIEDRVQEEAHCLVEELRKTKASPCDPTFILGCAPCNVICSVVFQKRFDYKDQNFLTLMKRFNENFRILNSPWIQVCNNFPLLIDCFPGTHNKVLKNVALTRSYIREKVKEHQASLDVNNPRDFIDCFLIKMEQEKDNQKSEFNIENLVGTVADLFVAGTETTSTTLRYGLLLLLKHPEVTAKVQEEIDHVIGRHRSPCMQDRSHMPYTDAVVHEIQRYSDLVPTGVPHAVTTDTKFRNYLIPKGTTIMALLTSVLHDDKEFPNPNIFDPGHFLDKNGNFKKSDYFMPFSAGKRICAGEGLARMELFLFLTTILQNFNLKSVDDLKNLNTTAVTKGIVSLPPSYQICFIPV

[16] = Plasma stability, beagle dog; type: in vitro ADME; conditions: 2 μM
[17] = molecular target: CYP450 2D6 (Homo sapiens, UniProt P10635); assay: CYP450 panel, 2D6; conditions: 10 μM; substrate dextromethophan
[18] = Caco-2, A-B Permeability Ranking
[19] = Caco-2, Mean Papp A-B (10^−6 cm/s)

Sequence of CYP450 2D6 (P10635 whole entry): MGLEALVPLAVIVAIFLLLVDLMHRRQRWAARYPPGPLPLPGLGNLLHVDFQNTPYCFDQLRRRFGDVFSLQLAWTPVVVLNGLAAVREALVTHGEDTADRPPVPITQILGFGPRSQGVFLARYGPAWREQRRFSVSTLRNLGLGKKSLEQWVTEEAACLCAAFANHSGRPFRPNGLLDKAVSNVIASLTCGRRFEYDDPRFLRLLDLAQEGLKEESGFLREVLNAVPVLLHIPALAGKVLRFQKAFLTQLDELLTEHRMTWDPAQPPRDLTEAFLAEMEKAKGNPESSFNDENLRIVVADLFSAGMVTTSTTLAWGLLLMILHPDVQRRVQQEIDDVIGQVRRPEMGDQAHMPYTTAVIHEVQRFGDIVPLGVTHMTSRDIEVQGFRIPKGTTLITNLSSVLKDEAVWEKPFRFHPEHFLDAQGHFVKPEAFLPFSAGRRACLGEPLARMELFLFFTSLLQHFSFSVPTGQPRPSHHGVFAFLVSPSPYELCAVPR
Sequence of hERG Channel (Q12809 whole entry): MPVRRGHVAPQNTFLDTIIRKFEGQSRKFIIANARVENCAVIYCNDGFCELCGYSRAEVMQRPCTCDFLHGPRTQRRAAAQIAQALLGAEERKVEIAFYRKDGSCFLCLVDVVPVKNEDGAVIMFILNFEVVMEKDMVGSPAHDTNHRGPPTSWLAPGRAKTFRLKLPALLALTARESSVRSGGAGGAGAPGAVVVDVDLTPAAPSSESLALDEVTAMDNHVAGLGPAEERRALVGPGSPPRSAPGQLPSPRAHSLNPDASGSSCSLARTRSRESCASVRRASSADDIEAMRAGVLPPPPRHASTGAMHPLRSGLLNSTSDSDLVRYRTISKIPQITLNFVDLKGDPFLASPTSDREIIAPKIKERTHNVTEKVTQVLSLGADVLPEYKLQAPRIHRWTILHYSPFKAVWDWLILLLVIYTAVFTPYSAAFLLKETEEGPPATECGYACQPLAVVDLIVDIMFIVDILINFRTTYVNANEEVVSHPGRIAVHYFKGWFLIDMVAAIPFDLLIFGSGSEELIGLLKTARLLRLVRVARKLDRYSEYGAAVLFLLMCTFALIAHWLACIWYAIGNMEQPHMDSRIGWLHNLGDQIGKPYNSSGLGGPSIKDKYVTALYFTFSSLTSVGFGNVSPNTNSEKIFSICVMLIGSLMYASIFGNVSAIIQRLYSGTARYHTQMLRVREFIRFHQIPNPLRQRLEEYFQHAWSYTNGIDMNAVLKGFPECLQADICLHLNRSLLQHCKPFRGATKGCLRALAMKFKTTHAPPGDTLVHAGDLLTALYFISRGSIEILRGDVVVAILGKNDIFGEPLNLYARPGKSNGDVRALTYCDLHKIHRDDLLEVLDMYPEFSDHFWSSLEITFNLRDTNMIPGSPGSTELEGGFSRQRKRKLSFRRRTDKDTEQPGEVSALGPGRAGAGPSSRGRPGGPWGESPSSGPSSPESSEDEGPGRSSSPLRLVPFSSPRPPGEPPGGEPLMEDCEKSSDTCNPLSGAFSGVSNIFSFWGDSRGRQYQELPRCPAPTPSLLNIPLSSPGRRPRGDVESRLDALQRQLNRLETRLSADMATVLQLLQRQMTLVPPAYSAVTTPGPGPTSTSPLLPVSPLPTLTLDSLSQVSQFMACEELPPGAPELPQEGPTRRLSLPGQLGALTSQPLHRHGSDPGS
Sequence of CYP450 3A4 (P08684 whole entry): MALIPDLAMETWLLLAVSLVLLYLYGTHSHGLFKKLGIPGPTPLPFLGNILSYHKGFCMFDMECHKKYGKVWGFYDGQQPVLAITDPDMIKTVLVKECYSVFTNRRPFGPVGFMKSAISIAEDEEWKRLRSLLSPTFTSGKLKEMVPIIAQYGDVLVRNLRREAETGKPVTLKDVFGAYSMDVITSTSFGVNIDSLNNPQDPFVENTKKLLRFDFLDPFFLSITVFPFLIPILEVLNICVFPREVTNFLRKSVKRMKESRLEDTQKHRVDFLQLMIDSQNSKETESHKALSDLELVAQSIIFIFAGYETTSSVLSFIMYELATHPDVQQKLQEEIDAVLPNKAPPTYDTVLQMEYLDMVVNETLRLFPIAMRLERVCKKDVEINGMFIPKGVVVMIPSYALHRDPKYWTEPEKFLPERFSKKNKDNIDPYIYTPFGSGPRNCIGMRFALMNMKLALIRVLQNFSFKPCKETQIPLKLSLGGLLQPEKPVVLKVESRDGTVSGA
Sequence of CYP450 2C19 (P33261 whole entry): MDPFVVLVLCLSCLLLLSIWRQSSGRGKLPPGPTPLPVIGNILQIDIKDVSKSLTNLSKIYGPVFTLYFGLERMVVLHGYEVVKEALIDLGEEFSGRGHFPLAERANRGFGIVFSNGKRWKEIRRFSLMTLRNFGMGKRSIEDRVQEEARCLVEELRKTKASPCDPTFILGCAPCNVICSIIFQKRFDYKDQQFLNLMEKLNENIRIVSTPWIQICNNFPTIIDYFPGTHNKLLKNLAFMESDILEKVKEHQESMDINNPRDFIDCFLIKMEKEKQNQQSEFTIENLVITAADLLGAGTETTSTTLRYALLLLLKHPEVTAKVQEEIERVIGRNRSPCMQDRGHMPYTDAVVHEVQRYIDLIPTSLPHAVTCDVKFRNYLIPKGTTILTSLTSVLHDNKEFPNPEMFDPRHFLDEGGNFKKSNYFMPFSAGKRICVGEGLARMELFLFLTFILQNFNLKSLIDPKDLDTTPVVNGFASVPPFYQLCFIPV
Sequence of CYP450 2C9 (P11712 whole entry): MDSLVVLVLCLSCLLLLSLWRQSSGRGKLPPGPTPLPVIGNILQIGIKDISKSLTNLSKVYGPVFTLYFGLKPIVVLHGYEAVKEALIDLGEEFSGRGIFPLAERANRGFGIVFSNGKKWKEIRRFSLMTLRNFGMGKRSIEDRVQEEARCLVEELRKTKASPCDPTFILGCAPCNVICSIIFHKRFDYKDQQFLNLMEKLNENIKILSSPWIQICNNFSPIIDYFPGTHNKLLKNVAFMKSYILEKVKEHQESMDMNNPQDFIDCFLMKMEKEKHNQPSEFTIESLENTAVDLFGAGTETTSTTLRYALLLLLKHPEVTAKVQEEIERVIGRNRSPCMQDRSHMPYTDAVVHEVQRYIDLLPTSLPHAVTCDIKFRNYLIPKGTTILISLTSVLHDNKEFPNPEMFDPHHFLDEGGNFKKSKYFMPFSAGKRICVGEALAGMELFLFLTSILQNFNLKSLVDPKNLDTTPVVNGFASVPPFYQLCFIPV

Row | SMILES | Papp B→A at 2 h, 10 μM [1] [×10⁻⁶ cm/s] | efflux ratio at 2 h, 10 μM [1] | Papp A→B at 2 h, 10 μM [1, 18] [×10⁻⁶ cm/s] | Papp A→B at 2 h, 10 μM [1, 19] [×10⁻⁶ cm/s] | CD-1 Mouse (% Reamining @2 hour) [2] [%] | Human (% Reamining @2 hour) [4] [%] | 2B6* [5] | CD-1 Mouse (% Reamining @1 hour) [6] [%] | 1A2* [7] | 2C19* [8] | IC50 [9] [µM] | activity at 0.01 µM [10] [%] | 3A4* [11] | 3A4^ [11] | Beagle Dog (% Reamining @1 hour) [12] [%] | Human (% Reamining @1 hour) [13] [%] | 2C9* [14] | 2C8* [15] | Beagle Dog (% Reamining @2 hour) [16] [%] | 2D6* [17] | further results
1 | CNS(=O)(=O)Nc1cccc(Cc2c(CN3CCNCC3)c3ccc(OC(=O)N(C)C)cc3oc2=O)c1F [Compound 10] | 3.8 | 56.3 | < 1 | 0.0676 | 97.7 | 92.1 | 22.4 | 91.3 | 0.4 | 4.8 | > 30 | 27.7 | 17.3 | 16.2 | 73.9 | 80.1 | 1.8 | −1.0 | 96.2 | −3.4 | activity at 0.1 µM [3]: 42.2%
2 | CNS(=O)(=O)Nc1cccc(Cc2c(CNC3CC3)c3ccc(OC(=O)N(C)C)cc3oc2=O)c1F [Compound 11] | 19.7 | 2.15 | > 1 | 9.18 | 81.4 | 93.7 | 12.1 | 7.0 | 6.9 | 9.7 | 1.1 |  | 36.1 | 44.8 | 4.9 | 28.9 | 12.9 | 0.8 | 97.8 | 9.8 | 
3 | CNS(=O)(=O)Nc1cccc(Cc2c(CNc3ccn[nH]3)c3ccc(OC(=O)N(C)C)cc3oc2=O)c1F [Compound 12] | 17.9 | 16.9 | > 1 | 1.06 | 86.6 | 100.5 | 14.9 | 28.2 | 13.0 | 16.0 | > 30 |  | 29.2 | 31.9 | 42.8 | 32.9 | 8.4 | 2.4 | 102.6 | 4.5 | 
4 | CNS(=O)(=O)Nc1cccc(Cc2c(CN3CCN(C)CC3)c3ccc(OC(=O)N(C)C)cc3oc2=O)c1F [Compound 15] | 34.9 | 29.3 | > 1 | 1.19 | 87.1 | 98.1 | 16.3 | 77.6 | 7.8 | 4.3 | 6.5 | 73.8 | 21.3 | 20.5 | 46.0 | 75.8 | 3.0 | −16.9 | 89.1 | 0.5 | 
5 | CNS(=O)(=O)Nc1cccc(Cc2c(CN3CCN(Cc4ccccc4)CC3)c3ccc(OC(=O)N(C)C)cc3oc2=O)c1F [Compound 16] | 5.61 | 0.743 | > 1 | 7.55 | 92.7 | 99.0 | 11.6 | 0.6 | 6.9 | 88.4 | 0.1 | 91.6 | 75.1 | 92.1 | 0.4 | 1.4 | 42.4 | 45.5 | 101.2 | 55.0 | 
